Here are results for 11 compounds from patent US8680275B2, “Fused heterocyclic compounds as orexin receptor modulators” (Janssen Pharmaceutica NV, priority 2009, dated 2014).

In one assay the target is human orexin 1 receptor (Homo sapiens (Human), UniProt O43613). Kind of assay: Human orexin 1 receptor radioligand binding ([3H]-SB674042 competition). The settings on record: CHO cells stably expressing human orexin 1 receptor; [3H]-SB674042 4 nM final; read-out: OR-1 Ki. An outline of the steps: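 CHO cells stably expressing human OX1R incubated 60 min at room temperature with [3H]-SB674042 and compounds (7 concentrations, 0.1 nM–10 μM; DMSO ≤0.1%) in PBS. Nonspecific binding defined with 10 μM of a reference urea antagonist; bound radioactivity measured by filtration and scintillation counting.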
Chain of human orexin 1 receptor (O43613 whole entry): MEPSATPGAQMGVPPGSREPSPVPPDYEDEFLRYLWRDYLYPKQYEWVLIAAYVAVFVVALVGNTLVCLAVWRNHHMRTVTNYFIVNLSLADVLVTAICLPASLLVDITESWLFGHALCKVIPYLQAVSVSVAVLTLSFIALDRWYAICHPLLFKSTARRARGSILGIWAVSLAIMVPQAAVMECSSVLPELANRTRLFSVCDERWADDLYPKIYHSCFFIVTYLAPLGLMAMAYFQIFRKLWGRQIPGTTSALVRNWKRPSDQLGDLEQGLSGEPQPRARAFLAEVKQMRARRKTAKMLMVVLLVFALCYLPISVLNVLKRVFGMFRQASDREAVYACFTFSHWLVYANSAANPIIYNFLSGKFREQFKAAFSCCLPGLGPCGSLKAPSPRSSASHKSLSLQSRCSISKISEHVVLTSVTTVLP

The next assay concerns the target human orexin-2 receptor (Homo sapiens (Human), UniProt O43614). Kind of assay: Human orexin 2 receptor radioligand binding ([3H]-EMPA competition). The settings on record: HEK293 cells stably expressing human orexin-2 receptor; [3H]-EMPA 5 nM final; read-out: OR-2 Ki. An outline of the steps: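 Competition binding on HEK293 cells stably expressing human orexin-2 receptor, using 5 nM final [3H]-EMPA in PBS, compounds 0.1 nM to 10 μM (DMSO ≤0.1%). 60 min at room temperature, then filtration and scintillation counting; nonspecific binding defined with 10 μM of a reference antagonist.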

Chain of human orexin-2 receptor (O43614 whole entry): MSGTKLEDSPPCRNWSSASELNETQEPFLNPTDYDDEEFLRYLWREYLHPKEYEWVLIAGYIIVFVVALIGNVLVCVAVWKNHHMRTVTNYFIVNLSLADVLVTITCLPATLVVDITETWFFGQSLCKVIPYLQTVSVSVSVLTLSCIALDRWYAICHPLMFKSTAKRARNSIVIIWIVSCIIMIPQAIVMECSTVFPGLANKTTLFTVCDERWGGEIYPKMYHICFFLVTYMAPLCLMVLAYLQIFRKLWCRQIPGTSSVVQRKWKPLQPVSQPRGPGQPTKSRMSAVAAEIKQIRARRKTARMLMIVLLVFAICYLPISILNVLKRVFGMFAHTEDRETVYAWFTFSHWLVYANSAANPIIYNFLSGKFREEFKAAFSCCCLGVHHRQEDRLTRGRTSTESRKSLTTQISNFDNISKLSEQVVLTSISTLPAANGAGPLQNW

With `Cc1cc(C)nc(N2C[C@@H]3CCN(C(=O)c4cc(F)ccc4-c4cncnc4)C[C@@H]32)n1` [Example 165, (1R,6S)-8-(4,6-Dimethylpyrimidin-2-yl)-3-[(5-fluoro-2-pyrimidin-5-ylphenyl)carbonyl]-3,8-diazabicyclo[4.2.0]octane], the Ki on human orexin 1 receptor stood at 10000 nM; on human orexin-2 receptor, 550 nM.

For `Cc1cc(C)nc(N2C[C@@H]3CCN(C(=O)c4cc(C)c(C)nc4-n4ccnn4)C[C@@H]32)n1` [Example 158, (1R,6S)-8-(4,6-Dimethylpyrimidin-2-yl)-3-{[5,6-dimethyl-2-(1H-1,2,3-triazol-1-yl)pyridin-3-yl]carbonyl}-3,8-diazabicyclo[4.2.0]octane], the Ki at human orexin 1 receptor amounted to 3200 nM; on human orexin-2 receptor, 170 nM.

As for `COc1cccc(OC)c1C(=O)N1CCC2CN(c3nc4ccccc4o3)C2C1` (stereo not shown) [Example 16, (8-Benzooxazol-2-yl-3,8-diaza-bicyclo[4.2.0]oct-3-yl)-(2,6-dimethoxy-phenyl)-methanone], the values for the Ki on human orexin 1 receptor and on human orexin-2 receptor were 460 nM and 284 nM, respectively.

With `Cc1cc(C)nc(N2C[C@@H]3CCN(C(=O)c4cccc(F)c4-n4cccn4)C[C@@H]32)n1` [Example 155, (1R,6S)-8-(4,6-Dimethylpyrimidin-2-yl)-3-{[3-fluoro-2-(1H-pyrazol-1-yl)phenyl]carbonyl}-3,8-diazabicyclo[4.2.0]octane], the figures for the inhibitory constant (Ki) on human orexin 1 receptor and at human orexin-2 receptor were 1530 nM and 57 nM, respectively.

On to `CN(C)c1ccnc(N2C[C@@H]3CCN(C(=O)c4cccc(F)c4-c4ncccn4)C[C@@H]32)c1` [Example 143, 2-{(1R,6S)-3-[(3-Fluoro-2-pyrimidin-2-ylphenyl)carbonyl]-3,8-diazabicyclo[4.2.0]oct-8-yl}-N,N-dimethylpyridin-4-amine], for which the inhibitory constant (Ki) on human orexin 1 receptor came to 10000 nM; at human orexin-2 receptor, 9000 nM.

In the case of `Cc1ccc(-n2nccn2)c(C(=O)N2CC3CN(c4nc(C)cc(C)n4)C3C2)c1` (stereo not shown) [Example 68, 6-(4,6-Dimethylpyrimidin-2-yl)-3-{[5-methyl-2-(2H-1,2,3-triazol-2-yl)phenyl]carbonyl}-3,6-diazabicyclo[3.2.0]heptane], the inhibition constant Ki on human orexin 1 receptor is 5000 nM; at human orexin-2 receptor, 192 nM.

Consider `Cc1cc(C)nc(N2C[C@@H]3CCN(C(=O)c4c(F)cccc4-c4ncccn4)C[C@@H]32)n1` [Example 22, (1R,6S)[8-(4,6-Dimethyl-pyrimidin-2-yl)-3,8-diaza-bicyclo[4.2.0]oct-3-yl]-(2-fluoro-6-pyrimidin-2-yl-phenyl)-methanone], for which the inhibition constant (Ki) was 473 nM on human orexin 1 receptor and 29 nM on human orexin-2 receptor.

In the case of `Cc1cc(C)nc(N2C[C@@H]3CCN(C(=O)c4ncoc4-c4cccc(Cl)c4)C[C@@H]32)n1` [Example 178, (1R,6S)-3-{[5-(3-Chlorophenyl)-1,3-oxazol-4-yl]carbonyl}-8-(4,6-dimethylpyrimidin-2-yl)-3,8-diazabicyclo[4.2.0]octane], the results for the inhibition constant Ki on human orexin 1 receptor and on human orexin-2 receptor were 7000 nM and 126 nM, respectively.

With `Cc1cc(C)nc(N2C[C@@H]3CCN(C(=O)c4c(C)noc4-c4snnc4C)C[C@@H]32)n1` [Example 180, (1R,6S)-8-(4,6-Dimethylpyrimidin-2-yl)-3-{[3-methyl-5-(4-methyl-1,2,3-thiadiazol-5-yl)isoxazol-4-yl]carbonyl}-3,8-diazabicyclo[4.2.0]octane], the Ki on human orexin 1 receptor worked out at 10000 nM; at human orexin-2 receptor, 6500 nM.

For `Cc1cnc(N2C[C@@H]3CCN(C(=O)c4ccccc4-n4nccn4)C[C@@H]32)cn1` [Example 100, (1R,6S)-8-(5-Methylpyrazin-2-yl)-3-{[2-(2H-1,2,3-triazol-2-yl)phenyl]carbonyl}-3,8-diazabicyclo[4.2.0]octane], the Ki on human orexin 1 receptor came out at 8700 nM; at human orexin-2 receptor it was 200 nM.

For `Cc1cc(C)nc(N2C[C@@H]3CCN(C(=O)c4ccccc4-n4cccc4)C[C@@H]32)n1` [Example 7, (1R,6S)[8-(4,6-Dimethyl-pyrimidin-2-yl)-3,8-diaza-bicyclo[4.2.0]oct-3-yl]-(2-pyrrol-1-yl-phenyl)-methanone], the inhibition constant (Ki) at human orexin 1 receptor was determined as 371 nM; on human orexin-2 receptor it was 15 nM.

Broadly, the Ki is a dissociation constant, usually derived from enzyme kinetics or from competition with a known ligand.
